Assays:
Assay type in all cases: physicochemical
Reaction rate (k°) = test: Reaction rate (k°)
[1] = Water solubility by quantitative NMR; conditions: for solubility: water (D2O), water, thermodynamic from solid
Method: The compound to be tested was dissolved in 100 μl D2O until saturation was reached. Any undissolved compound was filtered off and the filtrate was combined with a standard solution containing a known amount of a calibration compound as an internal reference. The sample is investigated using 1H NMR. […] The solubility of the compound to be tested was then calculated from a relative concentration determination based on the known calibration compound concentration.

[2] = Pulse voltammetry (SWV/DPV), three-electrode cell: redox potential of first reduction
[3] = Cyclic voltammetry, repeated charging-discharging cycles (integrated area over 100 scans)
[4] = Diffusion coefficient by Levic plot, rotating disk electrode
Method: The diffusion coefficient of molecules was measured using Levic plot, obtained using a rotating disk electrode (RDE) setup according to standard procedures.

[5] = Table 2, Ag/AgCl reference, +0.200 V offset applied, glassy carbon working electrode
[6] = Table 3, comparison of transquat, diquat and annulated diquat

Row | Solubility in water (M, at 20° C.) ([1]; Table 3, at 20° C.) | solubility ([1]; Table 2, at 20°C) | Redox Potential (V vs SHE) [2, 5] | Redox Potential (V vs SHE) [2, 6] | Capacity over 100 cycles ([3]; Table 2) | Capacity over 100 cycles ([3]; Table 3) | Diffusion coefficient (D, in cm^2s^−1) ([4]; Table 2) | Diffusion coefficient (D, in cm^2s^−1) ([4]; Table 3) | Solubility in water (M, at 20°C) ([1]; Table 2, at 20°C) | solubility ([1]; Table 3, at 20° C.) | SMILES | Reaction Rate (k°, in cm/s) (Reaction rate (k°); Table 2) | Reaction Rate (k°, in cm/s) (Reaction rate (k°); Table 3)
1 | >1500 mM | > 1500 mM | −0.48 V vs SHE | −0.48 V vs SHE | 0.98 | 0.98 | 1.62 × 10^−5 cm^2s^−1 | 1.62 × 10^−5 cm^2s^−1 |  |  | [Cl-].[Cl-].c1cc2c3[n+](c1)CCc1ccc[n+](c1-3)CC2 | 0.00764 cm/s | 0.00764 cm/s
2 |  | ~1000 mM | −0.59 V vs SHE |  | 0.95 |  | 6.45 × 10^−6 cm^2s^−1 |  |  |  | Cc1cc2c3[n+](c1)CCc1cc(C)c[n+](c1-3)CC2.[Cl-].[Cl-] | 0.016 cm/s | 
3 |  |  | −0.80 V vs SHE |  | 0.80 |  | 2.5 × 10^−6 cm^2s^−1 |  | Low |  | COc1cc[n+]2c3c1CC[n+]1ccc(OC)c(c1-3)CC2.[Cl-].[Cl-] | 0.00414 cm/s | 

More lines, now with the values behind:

Row | SMILES | Solubility in water (M, at 20° C.) ([1]; Table 3, at 20° C.) | solubility ([1]; Table 2, at 20°C) | Redox Potential (V vs SHE) [2, 5] | Redox Potential (V vs SHE) [2, 6] | Capacity over 100 cycles ([3]; Table 2) | Capacity over 100 cycles ([3]; Table 3) | Diffusion coefficient (D, in cm^2s^−1) ([4]; Table 2) | Diffusion coefficient (D, in cm^2s^−1) ([4]; Table 3) | Solubility in water (M, at 20°C) ([1]; Table 2, at 20°C) | solubility ([1]; Table 3, at 20° C.) | Reaction Rate (k°, in cm/s) (Reaction rate (k°); Table 2) | Reaction Rate (k°, in cm/s) (Reaction rate (k°); Table 3)
4 | CCOc1cc2c3[n+](c1)CCc1cc(OCC)c[n+](c1-3)CC2.Cl |  | > 1500 mM | −0.80 V vs SHE |  | 0.99 |  | 1.41 × 10^−5 cm^2s^−1 |  |  |  | 0.00615 cm/s | 
5 | [Cl-].[Cl-].c1cc2c3[n+](c1)CCCc1ccc[n+](c1-3)CCC2 |  | > 1500 mM | −0.64 V vs SHE |  | 0.98 |  | 1.63 × 10^−5 cm^2s^−1 |  |  |  | 0.0194 cm/s | 
6 | [Br-].[Br-].c1cc2c3[n+](c1)CC[n+]1cccc(c1-3)CC2 [reference compound] |  |  |  | −0.42 V vs SHE |  | 0.98 |  | 9.87 × 10^−6 cm^2s^−1 |  | > 1500 mM |  | 0.00768 cm/s
